Tests used:
Hep3B cells = assay: Agonist pERK AlphaLISA assay in Hep3B cells; type: cell-based, human; conditions: 10 min at 37° C, n = 3
Procedure: 293T HEK cells expressing KLB (or KL) or Hep3B cells were plated to 5–6 x 10^4 cells/well density in 96-well cell culture plate coated with poly-D-Lysine (Corning). The cells were serum starved for four hours in 0.1% BSA fraction V (ThermoFisher) containing media prior to treatment with protein and/or an antagonist peptide at the mentioned concentrations for 10 min at 37° C. For the antagonist assays, a chosen fixed dose within the range of 0.8–30 nM (depending on the cell type) of FGF21 or FGF19 stimulant was added to all the wells. BaF3 cells expressing human KLB/FGFR1c or human KLB/FGFR4-1c chimera were seeded at 5 × 10^5 cells/well density in 96-well cell culture plate and serum-starved overnight. FGF21/19 analogs were diluted in 0.02% Tween-20 containing RPMI1640 medium and the cells were treated for 15 min at 37° C. […] Phosphorylated ERK1/2 (pERK) levels were subsequently recorded by EnSpire Alpha or Envision Multilabel plate reader (Perkin Elmer). […]
(§1) All cellular phosphorylation data were analyzed using 3-parameter non-linear regression curve in GraphPad Prism 7. […] Each peptide and protein analog was tested in triplicates in three independent experiments (n = 3), and normalized graphs plotted are expressed as mean ± SD unless otherwise noted.

293/KLB cells = assay: Agonist pERK AlphaLISA assay in 293/KLB cells; type: cell-based, human; conditions: 10 min at 37° C, n = 3
Procedure: 293T HEK cells expressing KLB (or KL) or Hep3B cells were plated to 5–6 x 10^4 cells/well density in 96-well cell culture plate coated with poly-D-Lysine (Corning). The cells were serum starved for four hours in 0.1% BSA fraction V (ThermoFisher) containing media prior to treatment with protein and/or an antagonist peptide at the mentioned concentrations for 10 min at 37° C. For the antagonist assays, a chosen fixed dose within the range of 0.8–30 nM (depending on the cell type) of FGF21 or FGF19 stimulant was added to all the wells. BaF3 cells expressing human KLB/FGFR1c or human KLB/FGFR4-1c chimera were seeded at 5 × 10^5 cells/well density in 96-well cell culture plate and serum-starved overnight. FGF21/19 analogs were diluted in 0.02% Tween-20 containing RPMI1640 medium and the cells were treated for 15 min at 37° C. Following the respective cell treatments, the cells were lysed (with lysis buffer provided in the kit) for 10 min at room temperature on a shaker and the lysate was mixed with reaction mixture (consisting of reaction buffer, activation buffer, acceptor and donor beads provided in the kit). Phosphorylated ERK1/2 (pERK) levels were subsequently recorded by EnSpire Alpha or Envision Multilabel plate reader (Perkin Elmer). The cell assays corresponding to 293/KLB or Hep3B cells were carried out with AlphaLISA SureFire Ultra pERK1/2 (Thr 202/Tyr204) kit (Perkin Elmer), and BaF3 cells were done using AlphaScreen pERK1/2 (Thr202/Tyr204) kit (Perkin Elmer).
as §1, with “7. Graphs are represented as relative maximal (100%) response of the positive control. All other test analog signals were adjusted accordingly as % values.” for “7.”

human FGFR1/KLB = assay: Agonist pERK AlphaScreen assay in BaF3 cells, FGFR1/KLB; type: cell-based; conditions: BaF3 cells co-expressing KLB and FGFR1; 15 min at 37° C; n = 3
Text: (§2) For generating receptor specific BaF3 cell line, human FGFR1c cDNA was cloned into pMXs-IRES-Puro vector (Cell Biolabs) to generate the expression plasmid pMX-FGFR1c-IRES-Puro. Human FGFR4 sequence was re-engineered to enhance signaling by constructing chimeric cDNA encoding the extracellular region of FGFR4 fused to the intracellular region and tyrosine kinase domain of FGFR1c, and the chimeric sequence was cloned into pMX-IRES-Puro vector to generate the expression plasmid pMX-chimeric FGFR4-1c-IRES-Puro. Human KLB cDNA was cloned into pMXs-IRES-Neo vector (Cell Biolabs) to generate expression plasmid pMX-KLB-IRES-Neo. BaF3 cells were transfected with pMX-FGFR1c-IRES-Puro and pMX- FGFR4-1c chimera-IRES-Puro expression plasmids respectively by electroporation (Xcell machine, Bio-Rad, 950 μF, 370V). Cells were selected with media containing 1 μg/ml Puromycin for 10–12 days. […]
(§3) 293T HEK cells expressing KLB (or KL) or Hep3B cells were plated to 5–6 x 10^4 cells/well density in 96-well cell culture plate coated with poly-D-Lysine (Corning). […] Phosphorylated ERK1/2 (pERK) levels were subsequently recorded by EnSpire Alpha or Envision Multilabel plate reader (Perkin Elmer). […]
(§4) All cellular phosphorylation data were analyzed using 3-parameter non-linear regression curve in GraphPad Prism 7. […]

[1] = system: human FGFR4-1c chimera/KLB; assay: Agonist pERK AlphaScreen assay in BaF3 cells, FGFR4-1c chimera/KLB; type: cell-based; conditions: BaF3 cells co-expressing KLB and FGFR4-1c chimera; 15 min at 37° C; n = 3
Text: as §2, §3, §4

Substance: FGF19,A^194: FGF19 analog with single C-terminal lysine substitution to alanine
- pERK agonist activity, in words (Hep3B cells): comparable
- pERK agonist activity, in words (293/KLB cells): nearly tenfold more active than FGF19
- pERK agonist activity, in words (human FGFR1/KLB): enhanced signaling at the FGFR1/KLB complex by approximately ten-fold
- pERK agonist activity, in words [1]: no change in bioactivity

From PMC6026317, “Molecular elements in FGF19 and FGF21 defining KLB/FGFR activity and specificity” (Molecular Metabolism, 2018)
